According to patent US20050171030A1, “Relieving symptoms of erectile dysfunction and attaining sexual wellness and health of the sexual vascular system with proanthocyanidins” (priority 2000, published 2005):
Several values for one entry are separate records, joined by “and”; a condition that tells them apart may be missing. Equal entries are not always repeated.

Legend:
postmenopausal women = details: taken together with supplemental hormones; 202 postmenopausal women; cited from earlier work
[1] = tested on: men with testosterone levels below normal; test: Example 2: 12-month treatment of 50 men with testosterone levels below normal and secondary infertility; Global efficacy questionnaire on erection; assay type: in vivo, human; details: after 1 month treatment with L-arginine (only)
Method: In the department of Dr. Stanislavov and Dr. Nikolova 50 men aged between 45-60 with testosterone levels below normal were treated daily with • Pycnogenol® 120 mg • L-arginine (Sargenor) 1.71 g • Testosterone undecanoate 120 mg • over a period of 12 months because of secondary infertility.

[2] = tested on: men with erectile dysfunction; test: Clinical study of arginine aspartate (Sargenor) alone and with Pycnogenol in 40 men with erectile dysfunction; assay type: in vivo, human
Method: A clinical study was conducted on forty participants who had erectile dysfunction. The study involved the effect of taking arginine asparatate, which is a salt of arginine with aspartic acid. One gram of arginine asparatate contains 566.85 mg of arginine.
The participants were grouped according to their variant of disturbed erection. The variants are in five categories: weakened, delayed, hesitating, losing and normal. The “weakened” variant signifies that the penis increases in size and becomes hard to a certain extent, but it is not enough to enter the vagina. The “delayed” variant signifies that if it is possible for the penis to become hard enough to enter the vagina, but such may require additional time. The “hesitating” variant signifies that before or after sexual contact, the erection is unstable and thus makes the sexual intercourse more difficult. The “losing” variant signifies that during the love game there is good erection, but such is lost when trying to make contact or during intercourse. The “normal” variant signifies that no appreciable disturbed erection was present.
The clinical study was over three months. During the first month, only 3 doses of 1000 milligrams (mg) of arginine asparatate (Sargenor) were administered daily to each participant. By the end of the first month, there was improvement in erectile dysfunction in about 10% of the participants. During the second month, 2 doses of 40 mg of Pycnogenol® food supplement were administered daily to each participant, together with the 3 doses of 1000 mg of arginine asparatate. By the end of the second month, there was a statistically significant improvement of erectile dysfunction in 80% of the participants. During the third month, 3 doses of 40 mg of Pycnogenol® food supplement were administered daily to each participant, together with the 3 doses of 1000 mg of arginine asparatate. By the end of the third month, there was further improvement of the erectile dysfunction condition even for some of the participants who had not shown improvement during the second month. Overall, there was a statistically significant improvement of erectile dysfunction in 92% of the treated participants.
The following statistical analysis of the results from the clinical study calculate the probability of whether the observed differences between two treatments are statistically significant at a certain level.
Dr. Romil Stanislavov and V. Nikolova of The Seminological Laboratory SBALAG in Maichin Dom, Sofia, Bulgaria investigated the possibility to overcome erectile dysfunction by increasing the amounts of endogenous NO. For this purpose, Pycnogenol® pine bark extract as it is known to stimulate nitric oxide synthase was orally administered together with L-arginine as substrate for this enzyme.
The study included 40 men aged 25 to 45 years (mean age 36.6.+−.5.3 years) with confirmed functional erectile dysfunction of at least 3 months duration, who were unable to achieve adequate erection and rigidity sufficient for vaginal penetration and completion of successful intercourse after spontaneous sexual stimulation. All patients were required to be involved in a stable, monogamous relationship with a female partner for more than 6 months.
Exclusion criteria were severe cardiovascular diseases, hypertension, renal failure, hepatic insufficiency, endocrine abnormalities, and psychiatric disorders. Patients were also excluded if they were currently or recently treated for erectile dysfunction by vasoactive medications, surgery, or any mechanical device. Concomitant use of other therapies for erectile dysfunction were not allowed. The study was approved by the Ethics Committee of Medical Research Board of the University Clinic of Sofia, Bulgaria and written consent was obtained from each participant. […]

[3] = after 1 month, arginine aspartate (Sargenor) 3 x 1000 mg daily only, 40 patients

Compound | Women reporting improved genital sensations (postmenopausal women) [%] | Assessment of erection: Disturbed (weakened, delayed, hesitating, loosing), number of patients [1] | Assessment of erection: Disturbed (weakened, delayed, hesitating, loosing), percent of patients [1] [%] | Assessment of erection: Normal, number of patients [1] | Assessment of erection: Normal, percent of patients [1] [%] | Responders (restored erectile function), number of patients ([2]; Sargenor only, 1. month) | Responders (restored erectile function), percent of patients ([2]; Sargenor only, 1. month) [%] | Normal erection, D (percent distribution) [2, 3] [%] | Normal erection, n (number of patients) [2, 3] | Variant of disturbed erection: Delayed, D (percent distribution) [2, 3] [%] | Variant of disturbed erection: Delayed, n (number of patients) [2, 3] | Variant of disturbed erection: Hesitating, D (percent distribution) [2, 3] [%] | Variant of disturbed erection: Hesitating, n (number of patients) [2, 3] | Variant of disturbed erection: Losing, D (percent distribution) [2, 3] [%] | Variant of disturbed erection: Losing, n (number of patients) [2, 3] | Variant of disturbed erection: Weakened, D (percent distribution) [2, 3] [%] | Variant of disturbed erection: Weakened, n (number of patients) [2, 3] | Participants with improvement in erectile dysfunction ([2]; end of first month, 3 doses of 1000 mg arginine asparatate daily only) | Mean time of duration (of the erection) ([2]; mean (SEM), responders, Sargenor only, 1. month) [min] | Mean time until response emerges ([2]; mean (SEM), responders, spontaneous sexual stimulation, Sargenor only, 1. month)
CCCc1nn(C)c2c(=O)[nH]c(-c3cc(S(=O)(=O)N4CCN(C)CC4)ccc3OCC)nc12 [sildenafil] | 57 | – | – | – | – | – | – | – | – | – | – | – | – | – | – | – | – | – | – | –
L-arginine aspartate [Sargenor] | – | 42 | 84 | 8 | 16 | 2 | 5 | 5 | 2 | 25 | 10 | 10 | 4 | 10 | 4 | 50 | 20 | about 10% | 2 ± 1 | 10 min and 10 ± 2 min
